Tested on: Th2 cells
Experiment: Cytokine production of in vitro differentiated Th2 cells restimulated for 16 h (ELISA)
Format: cell-based, mouse
Details: restimulated 16 h, 0 to 100 µM
Description: To clarify the effects of pyrrothiogatain on Th2 cell differentiation, naive CD4 T cells were purified and cultured under Th2 conditions in the presence or absence of pyrrothiogatain for 5 days, and then the Th2 cell differentiation status was determined by intracellular staining. The generation of IL-4-, IL-5-, and IL-13-producing Th2 cells was repressed by treatment with pyrrothiogatain (Fig. 5A). Decreased production and mRNA expression of IL-4, IL-5 and IL-13 were confirmed using ELISA and RT-qPCR, respectively (Fig. 5B,C). […] Next, we treated in vitro differentiated Th2 cells with pyrrothiogatain to test the effect of pyrrothiogatain on Th2 cytokine production. Total CD4^+ cells were cultured under Th2 conditions for 5 days, and then the Th2 cells were restimulated in the presence or absence of pyrrothiogatain for 16 h. […]
Figure 5 Pyrrothiogatain inhibits Th2 cell differentiation and production of Th2 cytokines. […] (B) Cytokine production induced in the pyrrothiogatain treated Th2 cells shown in panel (A) was determined by ELISA. (C) Quantitative RT-PCR analysis of the pyrrothiogatain-treated Th2 cells shown in panel (A). […] The amounts of IL-4, IL-5 and IL-13 in the culture supernatants were determined by ELSA. In (B), (C) and (E), all data are expressed as individual points of three independent experiments with error bars indicating standard deviation. […]

With `Cc1ccc(C)n1-c1ccsc1C(=O)O` [Pyrrothiogatain, 3-(2,5-dimethyl-1H-pyrrol-1-yl)thiophene-2-carboxylic acid] the “IL-4, IL-5 and IL-13 production of restimulated Th2 cells” value was “decreased”.
